# Measurements: patent US10538555B2, “Macrocyclic inhibitors of the PD-1/PD-L1 and CD80(B7-1)/PD-L1 protein/protein interactions” (BRISTOL-MYERS SQUIBB COMPANY, priority 2014, dated 2020)
# *1 amine or outer side, *2 acyl side, *3 side chain or, on linkers, in order; H or OH if unused. Where a SMILES comes first, the peptide text is derived from it. Bridges are numbered along the chain shown (N, C = ends). [ ]: non-standard residue; d: D form. ξ: configuration not given here. Trp(1-CH2COOH) = N[C@@H](Cc1cn(CC(=O)O)c2ccccc12)C(=O)O; Trp(βS-Me) = C[C@@H](c1c[nH]c2ccccc12)[C@H](N)C(=O)O; Phe(3,4,5-F3) = N[C@@H](Cc1cc(F)c(F)c(F)c1)C(=O)O; Phe(3,4-F2) = N[C@@H](Cc1ccc(F)c(F)c1)C(=O)O; NMePhe(4-F) = CN[C@@H](Cc1ccc(F)cc1)C(=O)O; dPro(4S-Me) = C[C@@H]1CN[C@@H](C(=O)O)C1; Phe(4-F) = N[C@@H](Cc1ccc(F)cc1)C(=O)O; d(cisHyp) = O=C(O)[C@H]1C[C@@H](O)CN1; Bta = N[C@@H](Cc1csc2ccccc12)C(=O)O; NMeY = CN[C@@H](Cc1ccc(O)cc1)C(=O)O; Hyp = O=C(O)[C@@H]1C[C@@H](O)CN1; NMeF = CN[C@@H](Cc1ccccc1)C(=O)O; X1 = O=C([C@H]1COCCN1[*:1])[*:2]; dHyp = O=C(O)[C@H]1C[C@H](O)CN1; NMeNle = CCCC[C@H](NC)C(=O)O; dPip = O=C(O)[C@H]1CCCCN1; hSer = N[C@@H](CCO)C(=O)O; NMeA = CN[C@@H](C)C(=O)O; Orn = NCCC[C@H](N)C(=O)O; Dab = NCC[C@H](N)C(=O)O; Dap = NC[C@H](N)C(=O)O; ξC = NC(CS)C(=O)O
# Target: T1, Human PD-L1/PD-1 (Homo sapiens, UniProt Q9NZQ7)
# T1 construct: TVMV protease cleavage site (C); made in house; host or cells: HEK293T cells
# T1 sequence (Q9NZQ7 with tags, fused parts or gaps): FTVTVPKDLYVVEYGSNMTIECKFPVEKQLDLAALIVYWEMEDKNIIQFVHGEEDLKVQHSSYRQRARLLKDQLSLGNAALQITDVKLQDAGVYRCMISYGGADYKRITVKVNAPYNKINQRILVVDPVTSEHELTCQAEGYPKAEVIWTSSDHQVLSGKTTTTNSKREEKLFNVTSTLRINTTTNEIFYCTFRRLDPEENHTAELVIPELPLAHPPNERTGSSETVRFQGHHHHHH
# Assay: HTRF Human PD-L1/PD-1 binding assay (PD-1-Ig/PD-L1-His)
# Settings: PD-L1-His 10 nM, PD-1-Ig 20 nM; class symbol; read-out: HTRF Human PD-L1/PD-1 Binding Assay IC50 Range
# How it was run: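 Inhibitors were preincubated 15 min with human PD-L1(18-239)-His (10 nM final), then PD-1(25-167)-Ig (20 nM final) was added for 15 min in dPBS/0.1% BSA/0.05% Tween-20. Eu-cryptate anti-Ig (1 nM) and APC anti-His (20 nM) were added; 665/620 nm ratio read after 30 min.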
row,IC50 [nM],SMILES
1,1 to 9.9,"CCCC[C@H]1C(=O)N2C[C@H](O)C[C@@H]2C(=O)N[C@@H](CC(=O)O)C(=O)N[C@@H](C(C)C)C(=O)N(C)[C@@H](Cc2ccccc2)C(=O)N[C@@H](CC(=O)O)C(=O)N2C[C@H](O)C[C@@H]2C(=O)N[C@@H](Cc2c[nH]c3ccccc23)C(=O)N[C@@H](Cc2ccc(O)cc2)C(=O)N[C@@H](CCCN)C(=O)N[C@H](C(=O)NCC(N)=O)CSCC(=O)N[C@@H](Cc2cc(F)c(F)c(F)c2)C(=O)N(C)[C@@H](Cc2ccccc2)C(=O)N1C [Example 9346] ({CH2CO}-[Phe(3,4,5-F3)][NMeF][NMeNle][d(cisHyp)]DV[NMeF]D[d(cisHyp)]WY[Orn]CG-NH2; thioether N-13)"
2,10 to 99.9,CCCC[C@H]1C(=O)N(C)[C@@H](C)C(=O)N[C@@H](CCCNC(=N)N)C(=O)NC(C(=O)NCC(N)=O)CSCC(=O)N[C@@H](Cc2ccc(O)cc2)C(=O)N(C)[C@@H](C)C(=O)N[C@@H](CC(N)=O)C(=O)N2CCC[C@H]2C(=O)N[C@@H](Cc2cnc[nH]2)C(=O)N[C@H](CO)C(=O)N2C[C@H](O)C[C@H]2C(=O)N[C@@H](Cc2c[nH]c3ccccc23)C(=O)N[C@@H](CO)C(=O)N[C@@H](Cc2c[nH]c3ccccc23)C(=O)N1C (stereo partly drawn) [Example 9119] ({CH2CO}-Y[NMeA]NPH[dS][Hyp]WSW[NMeNle][NMeA]R[ξC]G-NH2; thioether N-14)
3,1 to 9.9,"CCCC[C@H]1C(=O)N2CCC[C@@H]2C(=O)N[C@@H](CCC(=O)O)C(=O)N[C@@H](C(C)C)C(=O)N(C)[C@@H](Cc2ccccc2)C(=O)N[C@@H](CCC(=O)O)C(=O)N2CCCC[C@@H]2C(=O)N[C@@H](Cc2c[nH]c3ccccc23)C(=O)N[C@@H](Cc2ccc(O)cc2)C(=O)N[C@@H](CC(C)C)C(=O)N[C@H](C(=O)NCC(N)=O)CSCC(=O)N[C@@H](Cc2cc(F)c(F)c(F)c2)C(=O)N(C)[C@@H](Cc2ccc(F)cc2)C(=O)N1C [Example 10576] ({CH2CO}-[Phe(3,4,5-F3)][NMePhe(4-F)][NMeNle][dP]EV[NMeF]E[dPip]WYLCG-NH2; thioether N-13)"
4,1 to 9.9,"CCCC[C@H]1C(=O)N2CCC[C@@H]2C(=O)N[C@@H](CC(=O)O)C(=O)N[C@@H](C(C)C)C(=O)N(C)[C@@H](Cc2ccccc2)C(=O)N[C@@H](Cc2ccc(O)cc2)C(=O)N2CCOC[C@@H]2C(=O)N[C@@H](Cc2c[nH]c3ccccc23)C(=O)N[C@@H](Cc2ccc(O)cc2)C(=O)N[C@@H](CCOC)C(=O)N[C@H](C(=O)NCC(N)=O)CSCC(=O)N[C@@H](Cc2cc(F)c(F)c(F)c2)C(=O)N(C)[C@@H](Cc2ccccc2)C(=O)N1C [Example 10187] ({CH2CO}-[Phe(3,4,5-F3)][NMeF][NMeNle][dP]DV[NMeF]Y[X1]WY[hSer](Me)CG-NH2; thioether N-13)"
5,10 to 99.9,"CCCC[C@H]1C(=O)N2CCC[C@@H]2C(=O)N[C@@H](CC(=O)O)C(=O)N[C@@H](C(C)C)C(=O)N(C)[C@@H](Cc2ccccc2)C(=O)N[C@@H](CCN)C(=O)N2CCOC[C@@H]2C(=O)N[C@@H](Cc2c[nH]c3ccccc23)C(=O)N[C@@H](Cc2ccc(O)cc2)C(=O)N[C@@H](CCC(=O)O)C(=O)N[C@H](C(=O)NCC(N)=O)CSCC(=O)N[C@@H](Cc2cc(F)c(F)c(F)c2)C(=O)N(C)[C@@H](Cc2ccc(O)cc2)C(=O)N1C [Example 10624] ({CH2CO}-[Phe(3,4,5-F3)][NMeY][NMeNle][dP]DV[NMeF][Dab][X1]WYECG-NH2; thioether N-13)"
6,1 to 9.9,"CCCC[C@H]1C(=O)N2CCC[C@@H]2C(=O)N[C@@H](CC(=O)O)C(=O)N[C@@H](C(C)C)C(=O)N(C)[C@@H](Cc2ccccc2)C(=O)N[C@@H](CCC(=O)O)C(=O)N2CCOC[C@@H]2C(=O)N[C@@H](Cc2c[nH]c3ccccc23)C(=O)N[C@@H](Cc2ccc(O)cc2)C(=O)N[C@@H](CN)C(=O)N[C@H](C(=O)NCC(N)=O)CSCC(=O)N[C@@H](Cc2cc(F)c(F)c(F)c2)C(=O)N(C)[C@@H](Cc2ccc(F)cc2)C(=O)N1C [Example 10606] ({CH2CO}-[Phe(3,4,5-F3)][NMePhe(4-F)][NMeNle][dP]DV[NMeF]E[X1]WY[Dap]CG-NH2; thioether N-13)"
7,10 to 99.9,CCCC[C@H]1C(=O)N(C)[C@@H](C)C(=O)N[C@@H](CCCNC(=N)N)C(=O)NC(C(=O)N[C@@H](CO)C(N)=O)CSCC(=O)N[C@@H](Cc2ccc(O)cc2)C(=O)N(C)[C@@H](C)C(=O)N[C@@H](CC(N)=O)C(=O)N2CCC[C@H]2C(=O)N[C@@H](CO)C(=O)N[C@H](CC(C)C)C(=O)N2CCC[C@H]2C(=O)N[C@@H](Cc2c[nH]c3ccccc23)C(=O)N[C@@H](CO)C(=O)N[C@@H](Cc2c[nH]c3ccccc23)C(=O)N1C (stereo partly drawn) [Example 9121] ({CH2CO}-Y[NMeA]NPS[dL]PWSW[NMeNle][NMeA]R[ξC]S-NH2; thioether N-14)
8,1 to 9.9,CCCC[C@H]1C(=O)N(C)[C@@H](CCCC)C(=O)N[C@@H](CCCNC(=N)N)C(=O)N[C@H](C(=O)NCC(N)=O)CSCC(=O)N[C@@H](Cc2ccc(O)cc2)C(=O)N(C)[C@@H](C)C(=O)N[C@@H](CC(N)=O)C(=O)N2CCC[C@H]2C(=O)N[C@@H](CC(N)=O)C(=O)N[C@@H](CC(C)C)C(=O)N2C[C@H](O)C[C@H]2C(=O)N[C@@H]([C@@H](C)c2c[nH]c3ccccc23)C(=O)N[C@@H](CO)C(=O)N[C@@H](Cc2c[nH]c3ccccc23)C(=O)N1C [Example 10534] ({CH2CO}-Y[NMeA]NPNL[Hyp][Trp(βS-Me)]SW[NMeNle][NMeNle]RCG-NH2; thioether N-14)
9,10 to 99.9,CCCC[C@H]1C(=O)N2CCC[C@@H]2C(=O)N[C@@H](CO)C(=O)N[C@@H](C(C)C)C(=O)N(C)[C@@H](Cc2ccccc2)C(=O)N[C@@H](Cc2ccc(O)cc2)C(=O)N2CCCC[C@@H]2C(=O)N[C@@H](Cc2c[nH]c3ccccc23)C(=O)N[C@@H](Cc2ccc(O)cc2)C(=O)N[C@@H](CC(C)C)C(=O)N[C@H](C(=O)NCC(N)=O)CSCC(=O)N[C@@H](Cc2ccccc2)C(=O)N(C)[C@@H](Cc2ccccc2)C(=O)N1C [Example 10064] ({CH2CO}-F[NMeF][NMeNle][dP]SV[NMeF]Y[dPip]WYLCG-NH2; thioether N-13)
10,1 to 9.9,"CCCC[C@H]1C(=O)N2C[C@@H](C)C[C@@H]2C(=O)N[C@@H](CC(=O)O)C(=O)N[C@@H](C(C)C)C(=O)N(C)[C@@H](Cc2ccccc2)C(=O)N[C@@H](Cc2ccc(OC)cc2)C(=O)N2C[C@@H](O)C[C@@H]2C(=O)N[C@@H](Cc2c[nH]c3ccccc23)C(=O)N[C@@H](Cc2ccc(O)cc2)C(=O)N[C@@H](CCCN)C(=O)N[C@H](C(=O)NCC(N)=O)CSCC(=O)N[C@@H](Cc2ccc(F)c(F)c2)C(=O)N(C)[C@@H](Cc2ccccc2)C(=O)N1C [Example 9229] ({CH2CO}-[Phe(3,4-F2)][NMeF][NMeNle][dPro(4S-Me)]DV[NMeF]Y(Me)[dHyp]WY[Orn]CG-NH2; thioether N-13)"
11,1 to 9.9,"CCCC[C@H]1C(=O)N2CCC[C@@H]2C(=O)N[C@@H](CC(=O)O)C(=O)N[C@@H](C(C)C)C(=O)N(C)[C@@H](Cc2ccccc2)C(=O)N[C@@H](CCC(=O)O)C(=O)N2C[C@@H](O)C[C@@H]2C(=O)N[C@@H](Cc2c[nH]c3ccccc23)C(=O)N[C@@H](Cc2ccc(O)cc2)C(=O)N[C@@H](CCCN)C(=O)N[C@H](C(=O)NCC(N)=O)CSCC(=O)N[C@@H](Cc2cc(F)c(F)c(F)c2)C(=O)N(C)[C@@H](Cc2ccccc2)C(=O)N1C [Example 9286] ({CH2CO}-[Phe(3,4,5-F3)][NMeF][NMeNle][dP]DV[NMeF]E[dHyp]WY[Orn]CG-NH2; thioether N-13)"
12,1 to 9.9,CCCC[C@H]1C(=O)N(C)[C@@H](CCCC)C(=O)N[C@@H](CCCNC(=N)N)C(=O)NC(C(=O)NCC(N)=O)CSCC(=O)N[C@@H](Cc2ccc(O)cc2)C(=O)N(C)[C@@H](C)C(=O)N[C@@H](CC(N)=O)C(=O)N2CCC[C@H]2C(=O)N[C@@H](CO)C(=O)N[C@@H](CO)C(=O)N2CCC[C@H]2C(=O)N[C@@H](Cc2c[nH]c3ccccc23)C(=O)N[C@@H](CO)C(=O)N[C@@H](Cc2csc3ccccc23)C(=O)N1C (stereo partly drawn) [Example 10015] ({CH2CO}-Y[NMeA]NPSSPWS[Bta][NMeNle][NMeNle]R[ξC]G-NH2; thioether N-14)
13,1 to 9.9,CCCC[C@H]1C(=O)N(C)[C@@H](CCCC)C(=O)N[C@@H](CC(C)C)C(=O)N[C@H](C(=O)NCC(N)=O)CSCC(=O)N[C@@H](Cc2ccc(O)cc2)C(=O)N(C)[C@@H](C)C(=O)N[C@@H](CC(=O)O)C(=O)N2CCC[C@H]2C(=O)N[C@@H](CN)C(=O)N[C@@H](CC(C)C)C(=O)N2C[C@H](O)C[C@H]2C(=O)N[C@@H](Cc2c[nH]c3ccccc23)C(=O)N[C@@H](CCN)C(=O)N[C@@H](Cc2cn(CC(=O)O)c3ccccc23)C(=O)N1C [Example 5171] ({CH2CO}-Y[NMeA]DP[Dap]L[Hyp]W[Dab][Trp(1-CH2COOH)][NMeNle][NMeNle]LCG-NH2; thioether N-14)
14,1 to 9.9,"CCCC[C@H]1C(=O)N2CCC[C@@H]2C(=O)N[C@@H](CC(=O)O)C(=O)N[C@@H](C(C)C)C(=O)N(C)[C@@H](Cc2ccccc2)C(=O)N[C@@H](CC(=O)O)C(=O)N2CCCC[C@@H]2C(=O)N[C@@H](Cc2c[nH]c3ccccc23)C(=O)N[C@@H](Cc2ccc(O)cc2)C(=O)N[C@@H](CCN)C(=O)N[C@H](C(=O)NCC(N)=O)CSCC(=O)N[C@@H](Cc2cc(F)c(F)c(F)c2)C(=O)N(C)[C@@H](Cc2ccc(F)cc2)C(=O)N1C [Example 10571] ({CH2CO}-[Phe(3,4,5-F3)][NMePhe(4-F)][NMeNle][dP]DV[NMeF]D[dPip]WY[Dab]CG-NH2; thioether N-13)"
15,1 to 9.9,CCCC[C@H]1C(=O)N(C)[C@@H](CCCC)C(=O)N[C@@H](CCCNC(=N)N)C(=O)N[C@H](C(=O)NCC(N)=O)CSCC(=O)N[C@@H](Cc2ccc(F)cc2)C(=O)N(C)[C@@H](C)C(=O)N[C@@H](CC(N)=O)C(=O)N2CCC[C@H]2C(=O)N[C@@H](Cc2cnc[nH]2)C(=O)N[C@@H](CCC(=O)O)C(=O)N2C[C@H](O)C[C@H]2C(=O)N[C@@H](Cc2c[nH]c3ccccc23)C(=O)N[C@@H](CO)C(=O)N[C@@H](Cc2c[nH]c3ccccc23)C(=O)N1C [Example 7082] ({CH2CO}-[Phe(4-F)][NMeA]NPHE[Hyp]WSW[NMeNle][NMeNle]RCG-NH2; thioether N-14)
